Measurements reported in paper PMC3221499, “A New Flavonoid C-Glycoside from Celtis australis L. and Celtis occidentalis L. Leaves and Potential Antioxidant and Cytotoxic Activities” (Scientia Pharmaceutica, 2011).

What was measured:
[1] = DPPH radical scavenging activity; details: samples at 100 μg/mL; 30 min at 30 °C; mean ± SE, n=3
Experimental: The ability of the extracts to scavenge free radicals was determined according to the method of Hosny, et al 2002 [24]. In a 96-well plate, 10 μL of each sample or standard dissolved in ethanol (100 μg/mL) was added to 190 μL of 316 μM/mL DPPH solution. A blank was prepared using ethanol. After incubation at 30 °C for 30 min, the absorbance of each solution was measured at 517 nm. DL-α-tocopherol and BHT were used as positive controls. […] All experiments were carried out in triplicate.

[2] = test system: FeSO4/H2O2-stimulated lipid peroxidation (MDA production) in rat tissue homogenates; assay: FeSO4/H2O2-stimulated lipid peroxidation (MDA production, TBARS) in rat tissue homogenates; type: biochemical; details: 200 μg/mL, mean ± SE, n=3; for Inhibition (%) Brain: rat brain homogenate; for Inhibition (%) Heart: rat heart homogenate; for Inhibition (%) Liver: rat liver homogenate
Experimental: During aerobic incubation of the tissue homogenates, MDA released reacts with thiobarbituric acid (TBA) to give a pink colour. The capability of the samples to inhibit MDA formation is used as a measure of their antioxidant activity. […] The results were expressed as nanomoles of MDA equivalents per milligram of protein of rat (brain, heart and liver) homogenates. All measurements were done in triplicate. The capability to inhibit MDA formation was calculated using the following equation: Inhibition effects (%)=1-MDA in tissue homogenate with test extracts/MDA in tissue homogenate without test extracts×100

| SMILES | DPPH % inhibition [1] [%] | Inhibition (%) Brain [2] [%] | Inhibition (%) Heart [2] [%] | Inhibition (%) Liver [2] [%] |
| --- | --- | --- | --- | --- |
| Cc1cc(C(C)(C)C)c(O)c(C(C)(C)C)c1 [BHT, butylated hydroxytoluene] | 55.3 ± 1.50 | 52.48 ± 1.72 | 43.23 ± 1.65 | 53.20 ± 1.65 |
| Cc1c(C)c2c(c(C)c1O)CC[C@@](C)(CCC[C@H](C)CCC[C@H](C)CCCC(C)C)O2 (racemic) [DL-α-tocopherol] | 66.5 ± 2.75 | 62.90 ± 2.18 | 58.70 ± 1.80 | 71.10 ± 2.25 |
